The record followed here is patent US7687643B2, “Process for preparing 3,3-dimethylindolines” (Amgen Inc., priority 2001, dated 2010).

For the assay, the system named is Human Umbilical Vein Endothelial cells (VEGF-stimulated). As to the kind of experiment: HUVEC proliferation assay, VEGF-stimulated. In kind it is cell-based. Particulars: VEGF 50 ng/mL, 72 h, CyQuant, read-out: inhibited VEGF-stimulated HUVEC proliferation at a level. On the procedure: Human Umbilical Vein Endothelial cells are purchased from Clonetics, Inc., as cryopreserved cells harvested from a pool of donors. These cells, at passage 1, are thawed and expanded in EBM-2 complete medium, until passage 2 or 3. The cells are trypsinized, washed in DMEM+10% FBS+antibiotics, and spun at 1000 rpm for 10 min. Prior to centrifugation of the cells, a small amount is collected for a cell count. After centrifugation, the medium is discarded, and the cells are resuspended in the appropriate volume of DMEM+10% FBS+antibiotics to achieve a concentration of 3×10^5 cells/mL. Another cell count is performed to confirm the cell concentration. The cells are diluted to 3×10^4 cells/mL in DMEM+10% FBS+antibiotics, and 100 μL of cells are added to a 96-well plate. The cells are incubated at 37° C. for 22 h.
Prior to the completion of the incubation period, compound dilutions are prepared. Five-point, five-fold serial dilutions are prepared in DMSO, at concentrations 400-fold greater than the final concentrations desired. 2.5 μL of each compound dilution are diluted further in a total of 1 mL DMEM+10% FBS+antibiotics (400× dilution). Medium containing 0.25% DMSO is also prepared for the 0 μM compound sample. At the 22-hour timepoint, the medium is removed from the cells, and 100 μL of each compound dilution is added. The cells are incubated at 37° C. for 2-3 h.
During the compound pre-incubation period, the growth factors are diluted to the appropriate concentrations. Solutions of DMEM+10% FBS+antibiotics, containing either VEGF or bFGF at the following concentrations: 50, 10, 2, 0.4, 0.08, and 0 ng/mL are prepared. For the compound-treated cells, solutions of VEGF at 550 ng/mL or bFGF at 220 ng/mL for 50 ng/mL or 20 ng/mL final concentrations, respectively, are prepared since 10 μL of each will be added to the cells (110 μL final volume). At the appropriate time after adding the compounds, the growth factors are added. VEGF is added to one set of plates, while bFGF is added to another set of plates. For the growth factor control curves, the media on wells B4-G6 of plates 1 and 2 are replaced with media containing VEGF or bFGF at the varying concentrations (50-0 ng/mL). The cells are incubated at 37° C. for an additional 72 h.
At the completion of the 72 h incubation period, the medium is removed, and the cells are washed twice with PBS. After the second wash with PBS, the plates are tapped gently to remove excess PBS, and the cells are placed at −70° C. for at least 30 min. The cells are thawed and analyzed using the CyQuant fluorescent dye (Molecular Probes C-7026), following the manufacturer's recommendations. The plates are read on a Victor/Wallac 1420 workstation at 485 nm/530 nm (excitation/emission). Raw data are collected and analyzed using a 4-parameter fit equation in XLFit. IC50 values are then determined.
Turning to `CNc1nccc(CNc2ncccc2C(=O)Nc2cc(OCCNS(C)(=O)=O)cc(C(F)(F)F)c2)n1` [Example 1091, 2-(((2-(methylamino)-4-pyrimidinyl)methyl)amino)-N-(3-((2-((methylsulfonyl)amino)ethyl)oxy)-5-(trifluoromethyl)phenyl)-3-pyridinecarboxamide], the IC50 is under 50 nM. For `CNc1cc(CNc2ncccc2C(=O)Nc2ccc3c(c2)N(S(C)(=O)=O)CC3(C)C)ccn1` [Example 1058, N-(3,3-dimethyl-1-(methylsulfonyl)-2,3-dihydro-1H-indol-6-yl)-2-(((2-(methylamino)-4-pyridinyl)methyl)amino)-3-pyridinecarboxamide], the IC50 was under 50 nM. The figure for `CC(C)c1ccc(NC(=O)c2cccnc2NCc2ccncc2)cc1` [Example 25, N-(4-Isopropylphenyl){2-[(4-pyridylmethyl)amino](3-pyridyl)}carboxamide] is under 50 nM; for `CCOC(=O)N1CC2(CC2)c2ccc(NC(=O)c3cccnc3NCc3ccnc(NC)n3)cc21` [Example 1108, Ethyl [1,2-dihydro-6-({2-[(2-methylamino-pyrimidin-4-ylmethyl)-amino]-pyridine-3-carbonyl}-amino)-3-spiro-1′-cyclopropyl-1H-indole]-1-carbamate] it is under 50 nM; for `CC1(C)CNCc2cc(NC(=O)c3cccnc3NCc3ccnc4c3CCN4)ccc21` [Example 1147, 2-[(2,3-Dihydro-1H-pyrrolo[2,3-b]pyridin-4-ylmethyl)-amino]-N-(4,4-dimethyl-1,2,3,4-tetrahydro-isoquinolin-7-yl)-nicotinamide] it is under 50 nM. Turning to `CC1(C)CNCc2cc(NC(=O)c3cccnc3NCc3ccnc(N)c3)ccc21` [Example 1168, 2-(((2-Amino-4-pyridinyl)methyl)amino)-N-(4,4-dimethyl-1,2,3,4-tetrahydro-7-isoquinolinyl)-3-pyridinecarboxamide], the IC50 is under 50 nM. For the compound `COc1cc(CNc2ncccc2C(=O)Nc2ccc3c(c2)NCCC3(C)C)ccn1` [Example 1113, N-(4,4-Dimethyl-1,2,3,4-tetrahydro-quinolin-7-yl)-2-[(2-methoxy-pyridin-4-ylmethyl)-amino]-nicotinamide], the IC50 was under 50 nM. The result for `CC1(C)CN(C[C@@H]2CCCN2)c2cc(NC(=O)c3cccnc3NCc3ccncc3)ccc21` [Example 1176, N-(3,3-Dimethyl-1-pyrrolidin-(2S)-ylmethyl-2,3-dihydro-1H-indol-6-yl)-2-[(pyridin-4-ylmethyl)-amino]-nicotinamide] reads under 50 nM; that for `CN1CC(C)(C)Oc2ccc(NC(=O)c3cccnc3NCc3ccncc3)cc21` [Example 942, 2-[(Pyridin-4-ylmethyl)-amino]-N-(2,2,4-trimethyl-3,4-dihydro-2H-benzo[1,4]oxazin-6-yl)-nicotinamide], under 50 nM; that for `CC(C)(C)c1ccc(NC(=O)c2cccnc2NCc2ccc3c(c2)CCO3)cc1` [Example 826, N-[4-(tert-Butyl)phenyl]{2-[(2,3-dihydrobenzo[b]furan-5-ylmethyl)amino](3-pyridyl)}carboxamide], under 50 nM. As for `CC1(C)CN(C(=O)c2cc[n+]([O-])cc2)c2cc(NC(=O)c3cccnc3NCc3ccncc3)ccc21` [Example 1100, N-[3,3-Dimethyl-1-(1-oxy-pyridine-4-carbonyl)-2,3-dihydro-1H-indol-6-yl]-2-[(pyridin-4-ylmethyl)-amino]-nicotinamide], the IC50 is under 50 nM. The result for `CCN1CCC(C)(C)c2ccc(NC(=O)c3cccnc3NCc3ccncc3)cc21` [Example 1124, N-(1-Ethyl-4,4-dimethyl-1,2,3,4-tetrahydro-quinolin-7-yl)-2-[(pyridin-4-ylmethyl)-amino]-nicotinamide] reads under 50 nM; that for `COc1cc(CNc2ncccc2C(=O)Nc2ccc3c(c2)NCC3(C)C)ccn1` [Example 1000, N-(3,3-dimethyl-2,3-dihydro-1H-indol-6-yl)-2-[(2-methoxy-pyridin-4-ylmethyl)-amino]-nicotinamide], under 50 nM.

Take `O=C(Nc1ccc(Cl)cc1)c1cccnc1NCc1ccc2ncccc2c1` [Example 21, N-(4-Chlorophenyl){2-[(6-quinolylmethyl)amino](3-pyridyl)}carboxamide]: the IC50 is under 50 nM.

Turning to `O=C(Nc1ccc(C(OC[C@@H]2CCCN2)(C(F)(F)F)C(F)(F)F)cc1)c1cccnc1NCc1ccncc1` [Example 1141, 2-[(Pyridin-4-ylmethyl)-amino]-N-{4-[2,2,2-trifluoro-1-(pyrrolidin-2-ylmethoxy)-1-trifluoromethyl-ethyl]-phenyl}-nicotinamide], the IC50 is under 50 nM. As to `CC1(C)CNCc2cc(NC(=O)c3cccnc3NCc3ccnc4[nH]ccc34)ccc21` [Example 1145, N-(4,4-Dimethyl-1,2,3,4-tetrahydro-isoquinolin-7-yl)-2-[(1H-pyrrolo[2,3-b]pyridin-4-ylmethyl)-amino]-nicotinamide], the IC50 was under 50 nM. With `CC1(C)CN(S(C)(=O)=O)c2cc(NC(=O)c3cccnc3NCc3ccnc(N)c3)ccc21` [Example 1059, 2-(((2-amino-4-pyridinyl)methyl)amino)-N-(3,3-dimethyl-1-(methylsulfonyl)-2,3-dihydro-1H-indol-6-yl)-3-pyridinecarboxamide], the IC50 was under 50 nM. As to `COc1cc(CNc2ncccc2C(=O)Nc2ccc(C(C)(C)C)c(OC[C@@H]3CCCN3)c2)ccn1` [Example 1067, N-(4-(1,1-dimethylethyl)-3-(((2S)-2-pyrrolidinylmethyl)oxy)phenyl)-2-(((2-(methyloxy)-4-pyridinyl)methyl)amino)-3-pyridinecarboxamide], the IC50 is under 50 nM.

Consider `O=C(Nc1ccc(C(F)(F)C(F)(F)F)c(OC[C@H](O)CN2CCCC2)c1)c1cccnc1NCc1ccncc1` [Example 951, (R) N-[3-(2-Hydroxy-3-pyrrolidin-1-yl-propoxy)-4-pentafluoroethyl-phenyl]-2-[(pyridin-4-ylmethyl)-amino]-nicotinamide], for which the IC50 is under 50 nM. In the case of `CC(=O)N1CC(C)(C)c2ccc(NC(=O)c3cccnc3NCc3ccncn3)cc21` [Example 1022, N-(1-Acetyl-3,3-dimethyl-2,3-dihydro-1H-indol-6-yl)-2-((4-pyrimidinylmethyl)amino)-3-pyridinecarboxamide], the IC50 is under 50 nM. As for `CNc1nccc(CNc2ncccc2C(=O)Nc2cc(NS(C)(=O)=O)cc(C(F)(F)F)c2)n1` [Example 1093, 2-(((2-(methylamino)-4-pyrimidinyl)methyl)amino)-N-(3-((methylsulfonyl)amino)-5-(trifluoromethyl)phenyl)-3-pyridinecarboxamide], the IC50 was under 50 nM. For `CN1CCC(CCCOc2cc(CNc3ncccc3C(=O)Nc3ccc(C(C)(C)C)cc3)ccn2)CC1` [Example 924, 2-({2-[3-(1-Methyl-piperidin-4-yl)-propoxy]-pyridin-4-ylmethyl}-amino)-N-(4-tert-butyl-phenyl)-nicotinamide], the IC50 was under 50 nM.

Turning to `CS(=O)(=O)Nc1cc(NC(=O)c2cccnc2NCc2ccncc2)cc(C(F)(F)F)c1` [Example 1095, N-(3-((methylsulfonyl)amino)-5-(trifluoromethyl)phenyl)-2-((4-pyridinylmethyl)amino)-3-pyridinecarboxamide], the IC50 is under 50 nM. The result for `CNc1nccc(CNc2ncccc2C(=O)Nc2ccc3c(c2)NC(=O)C3(C(F)(F)F)C(F)(F)F)n1` [Example 1036, 2-(((2-(Methylamino)-4-pyrimidinyl)methyl)amino)-N-(2-oxo-3,3-bis(trifluoromethyl)-2,3-dihydro-1H-indol-6-yl)-3-pyridinecarboxamide] reads under 50 nM; that for `O=C(Nc1ccc(C(F)(F)F)c(OCCN2CCCC2)c1)c1cccnc1NCc1ccncc1` [Example 982, 2-[(Pyridin-4-ylmethyl)-amino]-N-[3-(2-pyrrolidin-1-yl-ethoxy)-4-trifluoromethyl-phenyl]-nicotinamide], under 50 nM. Consider `CC(C)N1CCC[C@H]1COc1cc(NC(=O)c2cccnc2NCc2ccncc2)cc(C(F)(F)F)c1` [Example 1096, N-(3-((((2S)-1-(1-methylethyl)-2-pyrrolidinyl)methyl)oxy)-5-(trifluoromethyl)phenyl)-2-((4-pyridinylmethyl)amino)-3-pyridinecarboxamide], for which the IC50 was under 50 nM.
